Reference: paper PMC10746543, “Design principles for cyclin K molecular glue degraders” (Nature Chemical Biology, 2023)
“And” between values parts separate entries of the source, which are not always exact repeats. Identical values can stand only once. Like-named read-outs stand apart in the source and are kept apart here.

Legend:
[1] = tested on: HEK293T cells; test: Drug sensitivity assay (CellTiter-Glo viability) with or without MLN4924 pretreatment; type: cell-based, human; conditions: Supplementary Table 2; for EC50: Homo sapiens, HEK-293T, HEK293T viability, 72 h, compound alone, read-out: Cellular assays EC50; for Toxicity rescue: MLN4924-mediated cytotoxicity rescue, 10 µM used where n.d.
In short: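 First, cells (HEK293T–Cas9, 0.15 × 10^6 ml^−1) are exposed to DMSO or 100 nM MLN4924. Next, drugs follow at 2 h. Finally, CellTiter-Glo is read at day 3 and normalised to DMSO.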

[2] = tested on: cyclin K–eGFP degradation reporter; test: Cyclin K reporter stability analysis (dual-color cyclin K–eGFP reporter); type: cell-based, human
In short: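 Readout was the eGFP-to-mCherry geometric-mean ratio by flow cytometry, normalized to three DMSO controls, after 5 h drug exposure. Cells used were HEK293T–Cas9 expressing the dual-colour cyclin K–eGFP degradation reporter.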

[3] = target: T1, CDK12–cyclin K and DDB1 (Homo sapiens, UniProt Q16531+Q9NYV4, K965R); test: TR-FRET ternary complex formation assay (compound titration); type: binding; conditions: for TR-FRET signal at compound concentration: replicate titrations
T1 construct: His6–CDK12 (a.a. 713–1,052); full-length or beta-propeller B domain deletion (ΔBPB: a.a. 396–705 deleted) constructs of His6–DDB1ΔBPB, StrepII–Avi–DDB1, or His6–Spy–DDB1; made in house; host or cells: Trichoplusia ni High Five insect cells (baculovirus)
T1 sequence (Q9NYV4 713-1052 K965R): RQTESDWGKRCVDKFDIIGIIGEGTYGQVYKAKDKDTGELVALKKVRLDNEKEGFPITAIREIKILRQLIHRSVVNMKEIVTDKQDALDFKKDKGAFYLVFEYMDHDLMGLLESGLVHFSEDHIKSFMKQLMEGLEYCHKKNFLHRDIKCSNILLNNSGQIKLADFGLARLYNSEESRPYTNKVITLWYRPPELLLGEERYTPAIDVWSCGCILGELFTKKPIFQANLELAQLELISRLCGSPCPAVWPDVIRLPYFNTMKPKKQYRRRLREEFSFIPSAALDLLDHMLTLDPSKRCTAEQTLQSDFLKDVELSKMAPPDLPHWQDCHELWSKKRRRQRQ
T1 sequence (O75909 1-267 partner): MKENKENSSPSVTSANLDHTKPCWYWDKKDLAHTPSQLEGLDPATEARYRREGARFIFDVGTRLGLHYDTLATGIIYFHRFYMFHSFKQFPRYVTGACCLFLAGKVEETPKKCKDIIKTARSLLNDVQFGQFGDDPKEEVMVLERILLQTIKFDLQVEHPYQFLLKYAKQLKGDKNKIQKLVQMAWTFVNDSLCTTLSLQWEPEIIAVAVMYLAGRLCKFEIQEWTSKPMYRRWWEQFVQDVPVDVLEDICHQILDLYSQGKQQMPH
T1 sequence (Q16531 whole entry): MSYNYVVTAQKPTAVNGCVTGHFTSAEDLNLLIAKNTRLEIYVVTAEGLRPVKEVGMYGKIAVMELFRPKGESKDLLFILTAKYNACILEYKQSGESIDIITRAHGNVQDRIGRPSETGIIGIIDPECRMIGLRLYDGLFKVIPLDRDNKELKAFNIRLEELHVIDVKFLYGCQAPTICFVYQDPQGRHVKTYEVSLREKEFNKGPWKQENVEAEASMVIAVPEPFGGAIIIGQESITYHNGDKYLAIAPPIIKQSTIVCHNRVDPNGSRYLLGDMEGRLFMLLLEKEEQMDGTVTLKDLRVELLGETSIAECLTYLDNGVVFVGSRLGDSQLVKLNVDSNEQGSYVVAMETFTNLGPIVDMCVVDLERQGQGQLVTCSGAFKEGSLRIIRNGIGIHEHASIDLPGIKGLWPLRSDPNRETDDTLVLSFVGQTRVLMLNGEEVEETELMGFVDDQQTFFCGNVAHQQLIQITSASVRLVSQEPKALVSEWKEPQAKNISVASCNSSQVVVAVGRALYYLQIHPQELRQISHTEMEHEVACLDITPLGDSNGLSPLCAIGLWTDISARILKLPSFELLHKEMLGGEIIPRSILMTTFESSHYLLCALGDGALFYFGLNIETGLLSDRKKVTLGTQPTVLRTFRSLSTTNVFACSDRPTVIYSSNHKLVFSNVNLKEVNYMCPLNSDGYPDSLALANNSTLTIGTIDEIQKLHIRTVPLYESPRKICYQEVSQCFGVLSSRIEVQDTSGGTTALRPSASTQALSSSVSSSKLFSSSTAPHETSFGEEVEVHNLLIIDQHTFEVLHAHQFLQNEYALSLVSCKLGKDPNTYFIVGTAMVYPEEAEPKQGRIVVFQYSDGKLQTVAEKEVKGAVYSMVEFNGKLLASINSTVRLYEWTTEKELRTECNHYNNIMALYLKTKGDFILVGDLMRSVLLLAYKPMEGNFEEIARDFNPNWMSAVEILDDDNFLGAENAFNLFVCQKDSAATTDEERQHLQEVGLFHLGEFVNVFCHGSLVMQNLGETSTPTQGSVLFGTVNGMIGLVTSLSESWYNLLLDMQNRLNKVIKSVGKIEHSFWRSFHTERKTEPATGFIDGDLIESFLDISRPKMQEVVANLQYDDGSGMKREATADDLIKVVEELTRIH
In short: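 Background fluorescence is reduced by reading 70 μs after excitation, and complex formation is followed as the 520:490 nm fluorescence ratio.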

[4] = source data sheet correlations, read-out: DC50
[5] = compound concentration 0.468 nM
[6] = compound concentration 7.92001 nM
[7] = compound concentration 15.84 nM
[8] = compound concentration 30.96 nM
[9] = compound concentration 62.6401 nM
[10] = compound concentration 125.28 nM
[11] = compound concentration 244.8 nM
[12] = compound concentration 993.601 nM
[13] = compound concentration 2001.6 nM
[14] = in vitro complex formation, 50 nM CDK12–cyclin K, 100 nM DDB1, text and figures, read-out: TR-FRET EC50
[15] = sheet MOESM7, read-out: log TR-FRET EC50 (converted)
[16] = source data sheet correlations, read-out: TR-FRET EC50
[17] = Supplementary Table 2, HEK293T cycK-eGFP reporter, 5 h, read-out: Cellular assays DC50
[18] = Supplementary Table 2, read-out: TR-FRET EC50 TR-FRET
[19] = compound concentration 79.2001 nM
[20] = compound concentration 158.4 nM
[21] = compound concentration 309.6 nM
[22] = compound concentration 626.401 nM
[23] = compound concentration 1252.8 nM
[24] = compound concentration 9936.01 nM
[25] = compound concentration 20016 nM

SMILES	EC50 [1] [nM]	Toxicity rescue [1] [%]	DC50 [2, 4] [nM]	TR-FRET signal at compound concentration [3, 5]	TR-FRET signal at compound concentration ([3]; compound concentration 2.16 nM)	TR-FRET signal at compound concentration ([3]; compound concentration 3.6 nM)	TR-FRET signal at compound concentration [3, 6]	TR-FRET signal at compound concentration [3, 7]	TR-FRET signal at compound concentration [3, 8]	TR-FRET signal at compound concentration [3, 9]	TR-FRET signal at compound concentration [3, 10]	TR-FRET signal at compound concentration [3, 11]	TR-FRET signal at compound concentration [3, 12]	TR-FRET signal at compound concentration [3, 13]	EC50 [3, 14] [nM]	EC50 [3, 15] [nM]	EC50 [3, 16] [nM]	DC50 [2, 17] [nM]	EC50 [3, 18] [nM]	further results
CC[C@H](CO)Nc1nc(NCc2ccc(-c3ccccn3)c(F)c2)c2ncn(C(C)C)c2n1 [DS24]	794	270	172	0.1746 and 0.2408	0.2584 and 0.2684	0.3148 and 0.3094	0.4213 and 0.4118	0.6123 and 0.5731	1.004 and 0.9206	1.811 and 1.633	2.96 and 2.707	3.542 and 3.534	3.814 and 3.947	3.863 and 4.055	78 ± 2	78.2	78.2	–	–	–
CC[C@H](CO)Nc1nc(NCCCCCCc2ccccc2)c2ncn(C(C)C)c2n1 [DS10]	> 10000	0	–	–	–	–	–	–	–	–	–	–	–	–	595 ± 91	–	–	> 10000	595	fold lower affinity than DS11 ([3]; TR-FRET complex formation): 5-10 fold; TR-FRET signal at compound concentration ([3]; compound concentration 4.68 nM): 0.1344 and 0.1608; TR-FRET signal at compound concentration ([3]; compound concentration 21.6 nM): 0.1474 and 0.1725; TR-FRET signal at compound concentration ([3]; compound concentration 36 nM): 0.1731 and 0.2063; TR-FRET signal at compound concentration [3, 19]: 0.1998 and 0.2552; TR-FRET signal at compound concentration [3, 20]: 0.2546 and 0.3178; TR-FRET signal at compound concentration [3, 21]: 0.334 and 0.4076; TR-FRET signal at compound concentration [3, 22]: 0.4243 and 0.5117; TR-FRET signal at compound concentration [3, 23]: 0.5049 and 0.5958; TR-FRET signal at compound concentration ([3]; compound concentration 2448 nM): 0.6152 and 0.6779; TR-FRET signal at compound concentration [3, 24]: 0.7339 and 0.7716; TR-FRET signal at compound concentration [3, 25]: 0.6991 and 0.7616
CC[C@H](CO)Nc1nc(NCCCc2ccc(C)c(C)c2)c2ncn(C(C)C)c2n1 [DS66]	> 10000	0	88	0.2923 and 0.3076 and 0.198 and 0.2218	0.3989 and 0.4255 and 0.2838 and 0.3021	0.6137 and 0.6924 and 0.4704 and 0.4752	1.224 and 1.234 and 0.9118 and 0.9562	2 and 2.2 and 1.736 and 1.809	3.161 and 3.3799 and 3.037 and 2.9897	3.7362 and 4.009 and 3.696 and 3.655	3.905 and 4.159 and 3.906 and 3.9109	4.008 and 4.194 and 3.9625 and 4.012	4.134 and 4.267 and 4.125 and 4.115	4.074 and 4.31 and 4.121 and 4.142	18 ± 1	17.7	17.7	–	–	–
CC[C@H](CO)Nc1nc(NCC2CCCCC2)c2ncn(C(C)C)c2n1 [DS12]	> 10000	0	–	–	–	–	–	–	–	–	–	–	–	–	–	–	–	> 10000	774	TR-FRET signal, individual replicate ([3]; compound concentration 4.68 nM): 0.1383 and 0.1554; TR-FRET signal, individual replicate ([3]; compound concentration 21.6 nM): 0.1534 and 0.1726; TR-FRET signal, individual replicate ([3]; compound concentration 36 nM): 0.171 and 0.1959; TR-FRET signal, individual replicate [3, 19]: 0.2152 and 0.2381; TR-FRET signal, individual replicate [3, 20]: 0.2801 and 0.3063; TR-FRET signal, individual replicate [3, 21]: 0.3618 and 0.4127; TR-FRET signal, individual replicate [3, 22]: 0.3596 and 0.5492; TR-FRET signal, individual replicate [3, 23]: 0.6021 and 0.6861; TR-FRET signal, individual replicate ([3]; compound concentration 2448 nM): 0.7207 and 0.8094; TR-FRET signal, individual replicate [3, 24]: 0.7638 and 0.9453; TR-FRET signal, individual replicate [3, 25]: 0.8451 and 0.9714
CC[C@H](CO)Nc1nc(NCCCc2ccc(Cl)c(Cl)c2)c2ncn(C(C)C)c2n1 [DS65]	528	214	103	0.285 and 0.2127 and 0.2055	0.3417 and 0.2944 and 0.2907	0.5004 and 0.4783 and 0.4869	0.7813 and 0.9382 and 0.8877	1.382 and 1.799 and 1.705	2.38 and 2.795 and 2.787	3.286 and 3.376 and 3.32	3.728 and 3.691 and 3.7229	3.806 and 3.848 and 3.815	3.884 and 3.899 and 3.865	3.902 and 3.823 and 3.872	21 ± 1	20.8	20.8	–	–	–
CC[C@H](CO)Nc1nc(NCc2ccc(-c3ccncc3)cc2)c2ncn(C(C)C)c2n1 [DS44]	300	857	62	–	–	–	–	–	–	–	–	–	–	–	36 ± 2	35.6	35.6	–	–	TR-FRET signal at compound concentration 0.468 nM ([3]; compound concentration 0.468 nM, raw titration data): 0.2822 and 0.2969 and 0.203 and 0.2011; TR-FRET signal at compound concentration 2.16 nM ([3]; compound concentration 2.16 nM, raw titration data): 0.3572 and 0.3626 and 0.2614 and 0.2567; TR-FRET signal at compound concentration 3.6 nM ([3]; compound concentration 3.6 nM, raw titration data): 0.4873 and 0.5297 and 0.3719 and 0.3575; TR-FRET signal at compound concentration 7.92001 nM ([3]; compound concentration 7.92001 nM, raw titration data): 0.7272 and 0.8095 and 0.5738 and 0.5707; TR-FRET signal at compound concentration 15.84 nM ([3]; compound concentration 15.84 nM, raw titration data): 1.129 and 1.28 and 0.9406 and 0.8919; TR-FRET signal at compound concentration 30.96 nM ([3]; compound concentration 30.96 nM, raw titration data): 1.72 and 1.9375 and 1.384 and 1.358; TR-FRET signal at compound concentration 62.6401 nM ([3]; compound concentration 62.6401 nM, raw titration data): 2.307 and 2.567 and 2.074 and 2.11; TR-FRET signal at compound concentration 125.28 nM ([3]; compound concentration 125.28 nM, raw titration data): 2.789 and 3.0284 and 2.71 and 2.759; TR-FRET signal at compound concentration 244.8 nM ([3]; compound concentration 244.8 nM, raw titration data): 3 and 3.3475 and 2.848 and 3.078; TR-FRET signal at compound concentration 993.601 nM ([3]; compound concentration 993.601 nM, raw titration data): 3.126 and 3.521 and 3.221 and 3.228; TR-FRET signal at compound concentration 2001.6 nM ([3]; compound concentration 2001.6 nM, raw titration data): 3.1032 and 3.41 and 3.238 and 3.193
